Results reported in PubChem BioAssay (NCI).
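Method: 48-hour compound exposure of cells in 96-well plates, five concentrations, linear interpolation of endpoints. GI50 is the concentration that inhibits growth by half. TGI is the concentration that stops growth completely.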

Columns and labels:
Experiment in all cases: NCI anticancer screen, dose series, 48 h
SK-MEL-28 melanoma = system: SK-MEL-28 melanoma
OVCAR-3 ovarian = system: OVCAR-3 ovarian
786-0 renal = system: 786-0 renal
OVCAR-4 ovarian = system: OVCAR-4 ovarian
UACC-257 melanoma = system: UACC-257 melanoma
NCI-H226 lung = system: NCI-H226 lung
M14 melanoma = system: M14 melanoma
BT-549 breast = system: BT-549 breast
PC-3 prostate = system: PC-3 prostate
A549 NSCLC = system: A549 NSCLC
SK-MEL-2 melanoma = system: SK-MEL-2 melanoma
SK-OV-3 ovarian = system: SK-OV-3 ovarian

Structure (SMILES) | TGI (SK-MEL-28 melanoma) [µM] | TGI (OVCAR-3 ovarian) [µM] | TGI (786-0 renal) [µM] | TGI (OVCAR-4 ovarian) [µM] | TGI (UACC-257 melanoma) [µM] | TGI (NCI-H226 lung) [µM] | TGI (M14 melanoma) [µM] | TGI (BT-549 breast) [µM] | TGI (PC-3 prostate) [µM] | TGI (A549 NSCLC) [µM] | TGI (SK-MEL-2 melanoma) [µM] | TGI (SK-OV-3 ovarian) [µM] | GI50 (SK-MEL-28 melanoma) [µM] | GI50 (OVCAR-3 ovarian) [µM] | GI50 (OVCAR-4 ovarian) [µM] | GI50 (UACC-257 melanoma) [µM] | GI50 (M14 melanoma) [µM] | GI50 (BT-549 breast) [µM] | GI50 (A549 NSCLC) [µM] | GI50 (SK-MEL-2 melanoma) [µM]
O=C1CCN2c3ccccc3[C@H]3Cc4cccc(c4[C@@H]2C3)CCO1 | > 100 | 86 | > 100 | > 100 | > 100 | > 100 | 49.1 | > 100 | > 100 | > 100 | > 100 | > 100 | – | – | – | – | – | – | – | –
CC(C)Oc1c(C2(c3ccccc3)SCCCS2)c(=O)c1=O | > 100 | > 100 | > 100 | > 100 | > 100 | > 100 | > 100 | > 100 | > 100 | > 100 | > 100 | > 100 | – | – | – | – | – | – | – | –
C1CNOCCCONCCCNOCCCONC1 | > 100 | > 100 | > 100 | > 100 | > 100 | > 100 | > 100 | > 100 | 86 | > 100 | > 100 | > 100 | – | – | – | – | – | – | – | –
CC(C)OC(=O)c1ccc(NCc2cc(O)ccc2O)cc1 | 29.3 | 4.71 | 10.3 | 18.7 | 26.2 | 18.9 | 22.4 | 12.4 | 3.99 | > 67.8 | 27.8 | > 100 | – | – | – | – | – | – | – | –
CC1=NN(c2nc(N)nc(NS(=O)(=O)c3cc(C)c(Cl)cc3S)n2)C(C)(C)C1 | > 10 | > 10 | > 10 | > 10 | > 10 | > 10 | > 10 | > 10 | > 10 | > 10 | > 10 | > 10 | – | – | – | – | – | – | – | –
Cc1ccc(/C=C2\Sc3scc(-c4ccccc4)[n+]3C2=O)cc1 | > 100 | > 100 | > 56 | > 81.1 | > 62.3 | > 100 | > 94.9 | 50.9 | > 100 | > 84.3 | > 89.1 | > 67.6 | – | – | – | – | – | – | – | –
C#CC[C@@H]1C(=O)N(Cc2ccc(OC)cc2)[C@@H](C(C)C)C(=O)N1Cc1ccc(OC)cc1 | > 100 | > 100 | > 100 | > 100 | > 100 | > 100 | > 100 | 93.7 | > 100 | > 100 | 55.1 | > 100 | – | – | – | – | – | – | – | –
CC1=NN=C(C)C1N=Nc1ccc2nc(C)[nH]c2c1 | > 100 | > 73.6 | > 100 | > 100 | > 100 | 34.8 | > 100 | > 100 | > 100 | > 100 | 36.3 | 24.2 | – | – | – | – | – | – | – | –
CC(C)[C@@H]1CC[C@@H](C)C[C@H]1OC(=O)c1c2n(c3ccccc13)C[C@H]1OC(C)(C)O[C@@H]21 | > 100 | > 100 | > 100 | > 100 | > 100 | > 100 | > 100 | > 100 | > 100 | > 100 | > 100 | > 100 | – | – | – | – | – | – | – | –
CCN(CC)CCCNc1c2c(Cl)cc(Cl)cc2nc2nc(=O)[nH]c(C)c12 | 95.2 | > 100 | 38.1 | > 100 | > 100 | > 100 | 61.9 | > 100 | > 100 | > 100 | > 100 | 58 | – | – | – | – | – | – | – | –
Cn1c(=O)c2[nH]c(N=O)nc2n(C)c1=O | > 100 | > 100 | > 100 | > 100 | > 100 | > 100 | > 100 | > 100 | > 100 | > 100 | > 100 | > 100 | – | – | – | – | – | – | – | –
NS(=O)(=O)c1ccc(NC(=O)N/N=C/c2ccccc2O)cc1 | > 100 | > 100 | > 100 | > 100 | > 100 | > 100 | > 100 | > 100 | > 100 | > 100 | > 100 | > 100 | – | – | – | – | – | – | – | –
COc1nc(N=P(c2ccccc2)(c2ccccc2)c2ccccc2)cc(=O)n1C | > 100 | > 100 | > 100 | > 100 | > 100 | > 100 | > 100 | > 100 | > 100 | > 100 | > 100 | > 100 | – | – | – | – | – | – | – | –
COC1(CC[C@@H](C)COC2OC(CO)C(O)C(O)C2O)O[C@H]2C[C@H]3[C@@H]4CC=C5C[C@@H](OC6OC(CO)C(OC7OC(C)C(O)C(O)C7O)C(O)C6OC6OC(C)C(O)C(O)C6O)CC[C@]5(C)[C@H]4CC[C@]3(C)[C@H]2[C@@H]1C (stereo partly specified) | 5.53 | 6.64 | 4.02 | 6.72 | 8.38 | 15.3 | 8.42 | 6.81 | 9.58 | 4.22 | 8.5 | 3.09 | 2.26 | 2.04 | 2.44 | 2.56 | 1.58 | 2.58 | 1.55 | 3.26
CC(C)(C)OC(=O)NC1CCCC1C(=O)C1=CCCC1 (stereo unspecified) | > 100 | > 100 | > 100 | > 100 | > 100 | > 100 | > 100 | > 100 | > 100 | > 100 | > 100 | > 100 | – | – | – | – | – | – | – | –
C[C@]12C=CC(=O)C=C1CC[C@@H]1[C@@H]2CC[C@@]2(C)[C@H]1CC[C@]2(O)C(N)=O | > 100 | > 100 | > 100 | > 100 | > 100 | > 100 | > 100 | > 100 | > 100 | > 100 | > 100 | > 100 | – | – | – | – | – | – | – | –
CCOC1OC(CO)C(O)CC1n1ccc(=O)[nH]c1=O (stereo unspecified) | > 100 | > 100 | > 100 | > 100 | > 100 | > 100 | > 100 | > 100 | > 100 | > 100 | > 100 | – | – | – | – | – | – | – | – | –
